Assay results: PMC12163635, “Synthetic Retinoids for the Modulation of Genomic and Nongenomic Processes in Neurodegenerative Diseases” (ACS Omega, 2025)

Target: T1, RARα (Homo sapiens, UniProt P10276)
T1 sequence (P10276 182-417): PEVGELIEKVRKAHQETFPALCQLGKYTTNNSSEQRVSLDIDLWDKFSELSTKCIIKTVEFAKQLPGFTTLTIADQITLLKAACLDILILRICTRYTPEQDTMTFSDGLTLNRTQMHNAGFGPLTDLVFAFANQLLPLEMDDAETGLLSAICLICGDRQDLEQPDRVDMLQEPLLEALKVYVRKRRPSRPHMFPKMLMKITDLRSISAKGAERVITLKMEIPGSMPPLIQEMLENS
Test: Fluorescence competition binding assay (displacement of DC271)
Details: for Kd: stated for the RARs (RARα and RARγ) together, read-out: K D, binding to the RARs
Method: Fluorescence competition assays were employed to determine the relative binding affinities of each synthetic retinoid toward the LBD of the RARs. The assay is based on the potential for competitive displacement of the inherently fluorescent retinoid DC271 from the LBP by a test nonfluorescent synthetic retinoid. Changes in the fluorescence were measured following the addition of a serial dilution of the test compound and the results were plotted to generate a binding curve. […] Assays were performed for both RARα and RARγ. […] Nonlinear least-squares regression analyses were performed to calculate binding affinities and reported as binding K D, the equilibrium dissociation constant between the RAR isoform and the test synthetic retinoid.
RARα/γ proteins were expressed in BL21(DE3) cells (NEB) transformed into pET50b (Novagen) and pOPINS3C vectors, respectively, carrying the gene construct and containing a His6-3C-NusA tag or His6-3C-SUMO tag used for solubility. Transformations were carried out under standard conditions using Quick Transformation Protocol (New England Biolabs). Successful transformants were grown overnight in 2xYT media (Melford) and frozen for storage at −80 °C in 50% glycerol. Expression cultures were inoculated from glycerol stocks into 25 mL of 2xYT media (Melford) with 50 μg/mL kanamycin or 100 μg/mL ampicillin (Sigma-Aldrich) and grown overnight with shaking (37 °C, 150 rpm). The overnight cultures were transferred into 1 L expression flasks (2xYT/ampicillin 100 μg/mL or 2xYT/kanamycin 50 μg/mL) and grown with shaking at 37 °C, 150 rpm. Induction was carried out at an OD600 of 0.6–0.8, with 1 mL of 1 M IPTG (1 mM in culture), before shaking overnight (20 h) at 18 °C. The resulting cultures were spun down into pellets using an Avanti Hi-Speed centrifuge (JLA 8.1000, 4000 rpm, 30 min, 4 °C), before the supernatant was removed and the bacterial pellet were frozen at −80 °C.
RARα/γ (pET50b or pOPINS3C, BL21(DE3) (NEB)) were resuspended from pellet with 20 mL Wash Buffer (20 mM Tris-HCl, 300 mM NaCl and 20 mM imidazole, pH 8) and the resulting suspension was sonicated on ice (40% power, 2 min, repeated twice with 1 min rest in-between) before centrifuging (Avanti Hi-Speed JA25.50, 20,000 rpm, 1 h, 4 °C). Supernatants were clarified using 0.45 μm syringe filters (Thermo Fisher Scientific). Affinity chromatography and size-exclusion (SEC) chromatography were carried out on AKTA Pure25 (Cytiva). Supernatants were loaded onto the HisTrap HP column (5 mL, Cytiva) and washed using 25 mL of wash Buffer. The column was washed with Wash Buffer until UV trace returned to baseline, before RARα/γ was eluted using a gradient of Elution Buffer (20 mM Tris-HCl, 300 mM NaCl, 500 mM imidazole pH 8). The resulting protein-containing fractions were analyzed by SDS-PAGE (200 V, 30 min) using SurePAGE Bis-Tris 12% precast gels (Genscript). Protein concentrations were estimated using absorbance at 280 nm on a DS-11 spectrophotometer (Denovix) with calculated molecular weights and extinction coefficients (Expasy). RAR proteins were cleaved overnight from 3C-NusA tag or 3C-SUMO-His tag using 1 Unit/100 μg protein of HRV3C protease (Thermo Fisher Scientific) at 4 °C. Solution after digestion was loaded onto a HiLoad 16/600 Superdex 75 prep-grade column (Cytiva) and cleaved RARα/γ was separated from the tag based on molecular weight and eluted from the column using SEC Buffer (20 mM Tris-HCl, 300 mM NaCl and 0.5 mM TCEP, pH 8) into 2 mL fractions. The resulting protein fractions were analyzed by SDS PAGE (200 V, 30 min) using SurePAGE Bis-Tris 12% precast gels (Genscript), before being concentrated to 5 mg/mL using centrifugal concentrators (Sartorius) and frozen at −80 °C in small aliquots for use in binding assays.

Kd	Compound	binding preference RARα versus RARγ (from K D) (log-log plot of K D for RARα and RARγ)
> 1 µM	COc1cc2c(cc1C#Cc1ccc(C(=O)O)cn1)C(C)(C)CCC2(C)C [Compound 27, 6-[2-(3-Methoxy-5,5,8,8-tetramethyl-5,6,7,8-tetrahydronaphthalen-2-yl)ethynyl]pyridine-3-carboxylic Acid]	–
> 1 µM	Cc1sc(-c2ccc(C(=O)O)cc2F)nc1-c1cnc2c(n1)C(C)(C)CCC2(C)C [Compound 43, 3-Fluoro-4-[5-methyl-4-(5,5,8,8-tetramethyl-5,6,7,8-tetrahydroquinoxalin-2-yl)-1,3-thiazol-2-yl]benzoic Acid]	–
0.1 to 1 µM	Cc1cc2c(cc1C#Cc1ncc(C(=O)O)cn1)C(C)(C)CCC2(C)C [Compound 28, 2-[2-(3,5,5,8,8-Pentamethyl-5,6,7,8-tetrahydronaphthalen-2-yl)ethynyl]pyrimidine-5-carboxylic Acid]	–
0.1 to 1 µM	CC1(C)CCC(C)(C)c2nc(C#Cc3ccc(C(=O)O)cc3F)cnc21 [Compound 31, 3-Fluoro-4-[2-(5,5,8,8-tetramethyl-5,6,7,8-tetrahydroquinoxalin-2-yl)ethynyl]benzoic Acid]	–
0.1 to 1 µM	COc1cc2c(cc1C#Cc1cc(F)c(C(=O)O)c(F)c1)C(C)(C)CCC2(C)C [Compound 22, 2,6-Difluoro-4-[2-(3-methoxy-5,5,8,8-tetramethyl-5,6,7,8-tetrahydronaphthalen-2-yl)ethynyl]benzoic Acid]	–
0.1 to 1 µM	CC1(C)CCC(C)(C)c2nc(C#Cc3ccc(C(=O)O)cc3)cnc21 [Compound 30, 4-[2-(5,5,8,8-Tetramethyl-5,6,7,8-tetrahydroquinoxalin-2-yl)ethynyl]benzoic Acid]	–
0.1 to 1 µM	Cc1sc(-c2ccc(C(=O)O)cc2)nc1-c1cnc2c(n1)C(C)(C)CCC2(C)C [Compound 40, 4-[5-Methyl-4-(5,5,8,8-tetramethyl-5,6,7,8-tetrahydroquinoxalin-2-yl)-1,3-thiazol-2-yl]benzoic Acid]	–
0.1 to 1 µM	Cc1sc(-c2ccc(C(=O)O)c(F)c2)nc1-c1cnc2c(n1)C(C)(C)CCC2(C)C [Compound 42, 2-Fluoro-4-[5-methyl-4-(5,5,8,8-tetramethyl-5,6,7,8-tetrahydroquinoxalin-2-yl)-1,3-thiazol-2-yl]benzoic Acid]	–

Compound	Kd	binding preference RARα versus RARγ (from K D) (log-log plot of K D for RARα and RARγ)
Cc1sc(-c2ccc(C(=O)O)cc2)nc1-c1ccc2c(c1)C(C)(C)CCC2(C)C [GZ25, reference compound]	0.1 to 1 µM	bind RARγ stronger than RARα
